Laboratory results reported in patent US5288716A, “Use of pyridoxine derivatives in the prevention and treatment of hyperlipidaemia and atherosclerosis” (priority 1987, dated 1994).
Where a name gives a salt, the structure may show the parent alone.

Tests used:
[1] = Tolerance of vitamin B6 and two derivatives in mice after a single oral dose of 5 g; details: mouse, in vivo, 5000 mg, single oral dose of 5 g, read-out: % death
Source text: 3. Tolerance of vitamin B6 and two derivatives in mice after a single oral dose of 5 g

serum lipids = assay: Effect of vitamin B6 and a derivative thereof on serum lipids in rats after 12 weeks of treatment; assay type: in vivo; details: diet 2.5% cholesterol plus 0.25% cholic acid, 79 mg pyridoxine/kg or equimolar dose
Method: 1. Effect of vitamin B6 and a derivative thereof on serum lipids in rats after 12 weeks of treatment
Group A=rats fed with normal diet without cholesterol
Group B=rats fed with a diet containing 2.5% cholesterol plus 0.25% cholic acid
Group C=as group (B) plus 79 mg pyridoxine/kg bodyweight
Group D=as group (B) plus an equimolar (to pyridoxine) dose of a pyridoxamine derivative
20 animals per group; means ±SD; difference to group B in %

lipid metabolism [2] = details: earlier experiments on animals; cited from earlier work
lipid metabolism [3] = assay: Pyridoxine in rats (own experiments, with a positive control); assay type: in vivo; details: 79 mg/kg body weight
Source text: This was explicitly queried in DE 24 61 742 C2 (column 3, lines 35 ff). […] Pyridoxine was used separately in earlier experiments on animals in conjunction with lipid metabolism (see Frolova, J. A.: Vitamin B6 and lipid metabolism; Vopr. med. Khim. 89, 18. 339-346 (1972)). Its effect, however, is weak.

[4] = test system: aortae of the rabbits from the heart to the bifurcation; assay: Aorta changes in hyperlipaemic rabbits after 10 weeks of treatment (120 mg/kg), relative to non-treated rabbits; assay type: in vivo
Method: The values are mean values of 18 rabbits and measured relative to a basis of non-treated rabbits.
The control group received a diet comprising 2% of cholesterol. In the group under treatment each rabbit received additionally 120 mg pyridoxamine.2 HCl/kg body weight. At the end of the test the aortae of the rabbits from the heart to the bifurcation were prepared and examined: […]

aorta of rabbits = assay: Effect of vitamin B6 and the equimolar dose of a derivative thereof on the calcium and lipid content of the aorta of rabbits after 10 weeks; assay type: in vivo; details: control diet 2% cholesterol, pyridoxamine 2HCl 78 mg/kg, pyridoxine HCl 62 mg/kg
Source text: 2. Effect of vitamin B6 and the equimolar dose of a derivative thereof on the calcium and lipid content of the aorta of rabbits after 10 weeks of treatment as compared to a control group fed with a diet containing 2% cholesterol

[5] = 2% cholesterol diet, 120 mg/kg body weight, 10 weeks, mean of 18, relative to non-treated

| SMILES | mortality [1] [%] | calcium in aorta, % difference to control (aorta of rabbits) | cholesterol in aorta, % difference to control (aorta of rabbits) [%] | dry weight of aorta, % difference to control (aorta of rabbits) [%] | total lipids in aorta, % difference to control (aorta of rabbits) [%] | triglycerides in aorta, % difference to control (aorta of rabbits) | further results |
| --- | --- | --- | --- | --- | --- | --- | --- |
| Cc1ncc(CO)c(C=O)c1O [Pyridoxal] | 100 | – | – | – | – | – | – |
| Cc1ncc(CO)c(CN)c1O [Pyridoxamine] | 0 | – | – | – | – | – | – |
| Cc1ncc(CO)c(CO)c1O [Pyridoxine] | 30 | – | – | – | – | – | LDL + VLDL-Cholesterol, difference to group B (serum lipids): -10%; Total serum cholesterol, difference to group B (serum lipids): -4%; LDL + VLDL-Cholesterol (serum lipids; mean (SD in next line)): 150; Total serum cholesterol (serum lipids; mean (SD in next line)): 204; effect on lipid metabolism (lipid metabolism [2]): weak; effect in rats (lipid metabolism [3]): ineffective |
| Cc1ncc(CO)c(CN)c1O [pyridoxamine.2 HCl] | – | -24% | -21 | -7 | -15 | -15% | decrease of calcium in aorta [4, 5]: 31%; decrease of cholesterol in aorta [4, 5]: 27%; decrease of lipids (total) in aorta [4, 5]: 18%; decrease of triglycerides in aorta [4, 5]: 17%; decrease of changes characteristic for atherosclerosis (thickening of the walls, lipid- and calcium uptake) ([4]; after 10 weeks): substantial decrease |
| Cc1ncc(CO)c(CO)c1O [pyridoxine · HCl] | – | +21% | -2 | -1 | -3 | +6% | – |
